From patent publication US20050026853A1, “Anti-viral 7-deaza D-nucleosides and uses thereof” (Micrologix Biotech Inc., priority 2002, published 2005)

How the values were obtained:
HBV = HBV cell-based assay; set-up: species or system hepatitis B virus
Text: As described herein, compounds of the instant invention show surprising and exceptionally strong inhibition of viral replication, particularly HBV. […] In certain embodiments, the invention provides compounds capable of inhibiting viral replication, preferably HBV, at clinically relevant concentrations.
HBV cell-based assays for the evaluation of anti-viral activity against HBV are known in the art (see, e.g., Korba et al., Antiviral Res. 15:217, 1991; and Korba et al., Antiviral Res. 19:55, 1992). Moreover, the compounds of the invention can be useful research tools for in vitro and cell-based assays to study the biological mechanisms of viral infection, growth, and replication, preferably for HBV. By way of background and not wishing to be bound by theory, HBV replication is unusual in that this virus has a partially […] circular DNA (all of the minus DNA strand and part of the plus strand), but replicates by way of an RNA intermediate (typically, single-stranded viral DNA is converted to double stranded DNA, which serves as the template for viral replication). That is, when the virus enters the cell, the minus-strand DNA is transported to the cell nucleus, plus strand RNA is then transcribed from the DNA, the RNA is transported to the cytoplasm, and reverse transcriptase then synthesizes viral DNA from the RNA for packaging. […]

[1] = overall biopharmaceutical properties / oral availability

For `Nc1ncnc2c1c(F)cn2[C@H]1CC(O)[C@@H](CO)O1` (stereo partly drawn) [structure (II), 4-amino-5-fluoro-7-(2′-deoxy-β-D-erythro-pentofuranosyl) pyrrolo[2,3-d]pyrimidine], the “anti-viral activity against HBV” value (HBV) was “exhibit anti-viral activity against HBV”, the oral availability [1] was “orally available” and the overall biopharmaceutical properties [1] was “good overall biopharmaceutical properties”.
